Reference: the supplement of paper PMC10307832

Tests used:
Assay in all cases: relative viability (nuclei count vs DMSO), 5 days (fraction); higher = more cells survive
[1] = compound: C1=CC2=C(C=CC(=C2)C=C3C(=O)NC(=NCC4=CC=CS4)S3)N=C1 [RO-3306] + CC(=O)c1c(C)c2cnc(Nc3ccc(N4CCNCC4)cn3)nc2n(C2CCCC2)c1=O [Palbociclib] (partner 0.5 µM)
Method in brief: (§1)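 Five library-drug doses in √10 steps were combined with a fixed anchor-drug dose, or a single drug was given alone, by pin tool to lung cancer cell lines in 1536-well plates the day after seeding. Nuclei were stained and counted after 5 days. Relative viability is the nuclei count in treated wells over that in vehicle wells, taken as the median of duplicate plates.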

[2] = compound: C1=CC2=C(C=CC(=C2)C=C3C(=O)NC(=NCC4=CC=CS4)S3)N=C1 [RO-3306] + CC1(C)CCC(c2ccc(Cl)cc2)=C(CN2CCN(c3ccc(C(=O)NS(=O)(=O)c4ccc(N[C@H](CCN5CCOCC5)CSc5ccccc5)c(S(=O)(=O)C(F)(F)F)c4)cc3)CC2)C1 [Navitoclax] (partner 0.5 µM)
Method in brief: as §1

[3] = compound: C1=CC2=C(C=CC(=C2)C=C3C(=O)NC(=NCC4=CC=CS4)S3)N=C1 [RO-3306] + O=C(CCCCCCC(=O)Nc1ccccc1)NO [Vorinostat] (partner 1 µM)
Method in brief: as §1

[4] = compound: O=S(=O)(c1ccccc1)N(CC(F)(F)F)c1ccc(C(O)(C(F)(F)F)C(F)(F)F)cc1 + CC1(C)CCC(c2ccc(Cl)cc2)=C(CN2CCN(c3ccc(C(=O)NS(=O)(=O)c4ccc(N[C@H](CCN5CCOCC5)CSc5ccccc5)c(S(=O)(=O)C(F)(F)F)c4)cc3)CC2)C1 [Navitoclax] (partner 0.5 µM)
Method in brief: as §1

NCI-H1975
relative viability ([1]; first compound 0.01 µM): 0.614
relative viability ([1]; first compound 0.03162 µM): 0.453
relative viability ([1]; first compound 0.1 µM): 0.581
relative viability ([1]; first compound 0.3162 µM): 0.549
relative viability ([1]; first compound 1 µM): 0.553
relative viability ([2]; first compound 0.01 µM): 1.49
relative viability ([2]; first compound 0.03162 µM): 0.986
relative viability ([2]; first compound 0.1 µM): 1.22
relative viability ([2]; first compound 0.3162 µM): 1.12
relative viability ([2]; first compound 1 µM): 1.01
relative viability ([3]; first compound 0.01 µM): 0.608
relative viability ([3]; first compound 0.03162 µM): 0.624
relative viability ([3]; first compound 0.1 µM): 0.685
relative viability ([3]; first compound 0.3162 µM): 0.701
relative viability ([3]; first compound 1 µM): 0.69
relative viability ([4]; first compound 0.8 µM): 1.29
relative viability ([4]; first compound 2.53 µM): 1.11
relative viability ([4]; first compound 8 µM): 1.12
